From paper PMC11299021, “Machine learning-assisted substrate binding pocket engineering based on structural information” (Briefings in Bioinformatics, 2024) come the findings set out here.

The target of this experiment is T1, KvAP (Klebsiella variicola acid phosphatase) (Klebsiella variicola, UniProt B5XS64).
T1 construct: gene KPK_3238; synthetic gene in pET-22b (NdeI/BlpI), E. coli BL21(DE3); His-Trap and Superdex 75 purified
T1 sequence (B5XS64 20-248): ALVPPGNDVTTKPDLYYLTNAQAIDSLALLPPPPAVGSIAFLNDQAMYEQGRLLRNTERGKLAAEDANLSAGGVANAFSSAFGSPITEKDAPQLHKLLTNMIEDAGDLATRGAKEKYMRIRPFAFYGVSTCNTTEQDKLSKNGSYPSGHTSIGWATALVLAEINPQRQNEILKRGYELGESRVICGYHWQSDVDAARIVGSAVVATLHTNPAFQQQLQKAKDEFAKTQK
Kind of experiment: p-nitrophenol release at […] nm (specific activity). Conditions: 200 mM p-NPP disodium salt, 50 mM acetate pH 5.0, 37 °C, 20 min. The experiment is classed as biochemical.

Consider `O=[N+]([O-])c1ccc(OP(=O)(O)O)cc1` [p-NPP], for which the “p-nitrophenol release at 405 nm (specific activity)” value was “The purified enzyme was used for measuring its activity against nitrophenyl phosphate (p-NPP)”.
